Target: T1, human recombinant dopamine D4.2 receptor (Homo sapiens, UniProt P21917, DEL265-296)
T1 construct: expressed in transfected cells
T1 sequence (P21917 with tags, fused parts or gaps DEL265-296): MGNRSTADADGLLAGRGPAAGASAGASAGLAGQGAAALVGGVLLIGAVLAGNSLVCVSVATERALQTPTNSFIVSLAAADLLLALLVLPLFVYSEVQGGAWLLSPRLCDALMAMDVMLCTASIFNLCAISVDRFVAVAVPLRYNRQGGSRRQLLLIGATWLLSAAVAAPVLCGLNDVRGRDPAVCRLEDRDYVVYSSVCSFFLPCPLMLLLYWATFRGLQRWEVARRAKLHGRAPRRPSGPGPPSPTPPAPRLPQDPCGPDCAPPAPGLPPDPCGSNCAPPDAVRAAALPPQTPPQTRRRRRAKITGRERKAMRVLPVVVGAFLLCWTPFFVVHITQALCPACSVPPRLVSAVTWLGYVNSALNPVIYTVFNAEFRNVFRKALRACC
Assay: [3H]spiperone receptor binding assay, human dopamine D4.2, CHO K1 cell membranes

Row | Structure (SMILES) | Ki [µM]
1 | Cc1ccc(C2CCN(Cc3ccc4c(c3)NC(=O)CO4)CC2)cc1 [Example 16, 6-(4-p-Tolyl-piperidin-1-ylmethyl)-4H-benzo[1,4]oxazin-3-one] | 0.00284
2 | O=C1COc2ccc(CN3CCN(c4ccc(C(F)(F)F)cc4)CC3)cc2N1 [Example 31, 6-[4-(4-Trifluoromethyl-phenyl)-piperazin-1-ylmethyl]-4H-benzo[1,4]oxazin-3-one] | 0.173
